Columns and labels:
NCI-H716 cell [1] = assay: GLP-1 secretion in human enteroendocrine cell (ELISA); assay type: cell-based; conditions: 10, 20, 50, 100, 200, 500, 1000 and 2000 μM, 1 hour, FIG. 1A
Experimental: A NCI-H716 cell, i.e., a human enteroendocrine cell, was obtained from Korean Cell Line Bank. The obtained cell was culture in RPMI 1640 medium until the number of obtained cells increased in a proper amount. Then. the cells were moved to a matrigel-coated plate, and then cultured in DMEM medium for 48 hours, for endocrine differentiation.
Geraniol and nerol were purchased from Signa-Aldrich, USA.
Human enteroendocrine cells were each treated with geraniol at a concentration of 10, 20, 50, 100, 200, 500, 1000, and 2000 μM, respectively, and then cells were cultured for 1 hour. A human enteroendocrine cell was treated with nerol, which is an isomer of geraniol, as a comparison group, i.e., a negative control group, under the same condition as in the treating with geraniol.
GLP-1 secretion from the cell treated with geraniol and the cell treated with nerol were identified using enzyme-linked immunosorbent assay (ELISA). ELISA was carried out using a GLP-1 ELISA kit, available from Millipore, based on the user manual. The amount of GLP-1 secretion was measured using a fluoroskan ascent microplate reader (Thermo Electron Corp., Finland).

olfactory receptor OR1A1 = target: T1, olfactory receptor OR1A1 (Homo sapiens, UniProt Q9P1Q5); assay: GLP-1 secretion by geraniol in enteroendocrine cell with OR1A1 knocked-down by siRNA; assay type: cell-based; conditions: 100 μM, 1 hour, OR1A1 knocked-down vs normal cell, FIG. 1B
T1 construct: endogenous in cells; host or cells: human enteroendocrine cell (NCI-H716 named)
T1 sequence (Q9P1Q5 1-309): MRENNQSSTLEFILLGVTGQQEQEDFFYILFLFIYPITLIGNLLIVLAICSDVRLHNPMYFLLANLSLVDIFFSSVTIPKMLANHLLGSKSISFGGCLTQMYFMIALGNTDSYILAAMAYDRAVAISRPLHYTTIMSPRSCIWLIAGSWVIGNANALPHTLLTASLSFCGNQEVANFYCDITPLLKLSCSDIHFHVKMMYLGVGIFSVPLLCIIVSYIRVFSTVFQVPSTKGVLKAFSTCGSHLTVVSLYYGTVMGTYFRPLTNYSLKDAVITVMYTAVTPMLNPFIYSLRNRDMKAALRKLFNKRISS
Experimental: (§1) In a human enteroendocrine cell, in which an olfactory receptor is knocked-down by small-interference RNA (siRNA), an olfactory receptor signal transduction mechanism was identified.
(§2) Human enteroendocrine cells in which olfactory receptors OR1A1 and OR1G1 were knocked-down by siRNAs, respectively, were cultured. SiRNAs for knocking-down OR1A1 (SEQ ID NO. 1 and 2, siRNA No. 1108058) and OR1G1 (SEQ ID NO. 3 and 4, siRNA No. 1108121) are available from Bioneer Co. (South Korea). Lipofectamine 2000 (available from Life technology, USA) was used to carry out intracellular transfection, based on the user manual.
(§3) The human enteroendocrine cells in which olfactory receptors were knocked-down and a normal human enteroendocrine cell were each treated with geraniol at a concentration of 100 μM. Then, the cells were cultured for 1 hour at 37° C. at a concentration of 5% CO2. Thereafter, GLP-1 secretion was identified using ELISA.

olfactory receptor OR1G1 = target: T2, olfactory receptor OR1G1 (Homo sapiens, UniProt P47890); assay: GLP-1 secretion by geraniol in enteroendocrine cell with OR1G1 knocked-down by siRNA; assay type: cell-based; conditions: 100 μM, 1 hour, OR1G1 knocked-down vs normal cell, FIG. 1C
T2 construct: endogenous in cells; host or cells: human enteroendocrine cell (NCI-H716 named)
T2 sequence (P47890 1-313): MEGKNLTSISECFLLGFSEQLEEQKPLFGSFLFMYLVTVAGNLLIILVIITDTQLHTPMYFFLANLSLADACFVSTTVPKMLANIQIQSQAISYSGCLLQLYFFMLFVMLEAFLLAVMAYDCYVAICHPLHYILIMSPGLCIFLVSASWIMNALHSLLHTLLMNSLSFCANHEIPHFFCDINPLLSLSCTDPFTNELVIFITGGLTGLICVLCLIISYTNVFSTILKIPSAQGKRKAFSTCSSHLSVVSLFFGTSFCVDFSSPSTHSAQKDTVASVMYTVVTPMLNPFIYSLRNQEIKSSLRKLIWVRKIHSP
Experimental: as §1, §2, §3

[2] = tested on: human enteroendocrine cell; assay: Change of calcium concentration in human enteroendocrine cell; assay type: cell-based; conditions: 100 μM, treated after 1 minute elapsed from the start of the experiment, FIG. 2
Text: FIG. 2 is a graph showing the change of calcium concentration in a human enteroendocrine cell after geraniol treatment.

[3] = tested on: human enteroendocrine cell; assay: Change amount of cAMP in human enteroendocrine cell (cAMP ELISA); assay type: cell-based; conditions: 100 μM geraniol, FIG. 3
Experimental: In a human enteroendocrine cell, the result of geraniol treatment (100 μM) and forskolin treatment (10 μM), which is a cAMP activator, were compared with each other.

[4] = tested on: db/db mouse, type II diabetes mellitus model; assay: Oral glucose tolerance test after gavage; assay type: in vivo
Experimental: Oral glucose tolerance test was performed on a db/db mouse (leptin receptor knocked-out mice) (35 g to 39 g), which is a type II diabetes mellitus model. A male 6 week-old db/db mouse was purchased from Daehan Biolink Co., Ltd (DBL, South Korea). A fasting blood sugar level of a db/db mouse of 18 hour-gastric emptying fasted state was measured. Then, the experimental group and the control group were each oral administered with geraniol and metformin, and saline via gavage. Geraniol was administered at 150 or 500 mg/weight Kg, and metformin was administered at 300 mg/weight Kg. Then, each group was administered with glucose of 5 g/weight Kg. Oral glucose tolerance test (OGTT) was performed after 10 minutes, 20 minutes, 40 minutes, 90 minutes, and 120 minutes elapsed.

[5] = tested on: db/db mouse, type II diabetes mellitus model; assay: Plasma GLP-1 and insulin after gavage and glucose (multiplex assay); assay type: in vivo; conditions: oral administration, glucose 2 g/weight Kg, compared with PBS group
Experimental: By using the same method in Example 2 (1), db/db mice of fasted state were each gavaged with geraniol, metformin, or saline. Then, each group were administered with glucose of 2 g/weight Kg. after 10 minutes, 20 minutes, 30 minutes, and 40 minutes elapsed, the amount of GLP-1 and insulin in plasma were measured by using multiplex assay (available from Bio-Rad, USA), based on the user manual, and Bio-Plex MAGPIX multiplex reader (available from Bio-Rad, USA).

[6] = tested on: db/db mouse, type II diabetes mellitus model; assay: Oral glucose tolerance test with geraniol smelling (olfactory stimulation); assay type: in vivo
Experimental: A male 6 week-old db/db mouse was purchased from Daehan Biolink Co., Ltd (DBL, South Korea). A fasting blood sugar level of a db/db mouse of 18 hour-gastric emptying fasted state was measured. Then, the experimental group was stimulated (smelling) with geraniol through olfaction. The control group was oral administered with saline and metformin of 300 mg/weight Kg via gavage. Then, each of the experimental group and the control group were administered with glucose of 2 g/weight Kg. After 10 minutes, 20 minutes, 40 minutes, 90 minutes, and 120 minutes elapsed, the amount of GLP-1 in plasma was verified by using multiplex assay (available from Bio-Rad, USA).

NCI-H716 cell [7] = assay: Cell viability MTT assay; assay type: cell-based, human; conditions: 10 μM to 1000 μM, 1 hour, compared with PBS, FIG. 8
Experimental: In order to verify cytotoxicity of geraniol on a human enteroendocrine cell, MTT assay was carried out as follows. In detail, cell viability assay was carried out using 3-(4,5-dimethylthiazol-2-yl)-2,5-diphenyltetrazolium) bromide (MTT) (available from Invitrogen, Carlsbad, Calif., USA). An endocrine cell, a NCI-H716 cell, was treated with geraniol of different levels of concentration and 6 mM MTT for 1 hour. Dimethyl sulfoxide (DMSO) was added to the cells, and absorbance thereof was measured using Bio-Rad model 680 microplated reader (Bio-Rad, Hercules, Calif., USA) at 540 nm.

CC(C)=CCC/C(C)=C/CO [geraniol]
GLP-1 secretion promoting effect (NCI-H716 cell [1]): dose-dependently promotes GLP-1 secretion
GLP-1 secretion via stimulation of OR1A1 (olfactory receptor OR1A1): stimulates OR1A1, an olfactory receptor, promoting GLP-1 secretion
GLP-1 secretion via stimulation of OR1G1 (olfactory receptor OR1G1): stimulates OR1G1, an olfactory receptor, promoting GLP-1 secretion
time at which calcium concentration in the cell was the highest [2]: 4 min
time after treatment at which concentration of cAMP in the cell was the highest [3]: 30 min
hypoglycemic effect at oral glucose tolerance test ([4]; gavage 150 or 500 mg/weight Kg, glucose 5 g/weight Kg, compared with saline group, FIG. 5A-5C): exhibited hypoglycemic effect
hypoglycemic effect compared with metformin ([4]; geraniol gavage 150 or 500 mg/weight Kg vs metformin 300 mg/weight Kg): comparable to metformin
plasma GLP-1 ([5]; FIG. 6A, 6C): secretion inducing of GLP-1
plasma insulin ([5]; FIG. 6B, 6D): additional insulin
blood sugar level ([6]; geraniol smelling (olfactory stimulation), FIG. 9): lowered the blood sugar level
amount of GLP-1 in plasma ([6]; geraniol smelling, 10 minutes after glucose 2 g/weight Kg, vs metformin 300 mg/weight Kg oral, FIG. 10): increased more than the case of metformin administration
cytotoxicity (cell viability, MTT) (NCI-H716 cell [7]): found not to have cytotoxicity

CC(C)=CCC/C(C)=C\CO [nerol, reference compound]
GLP-1 secretion promoting effect (NCI-H716 cell [1]): had no GLP-1 secretion promotion effect
